The source made the active and inactive calls.
Experiments:
[1] = molecular target: T1, Oxysterols receptor LXR-beta (Homo sapiens, UniProt P55055); format: functional, cell-based;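 further: Cell-based luminescence dose-response assay of agonist activity at LXR, run as a confirmatory counterscreen to a daf-12 agonist screen; HEK293 cells with Gal4-LXR fusion and GAL4-driven luciferase reporter; agonist potency from rising luciferase signal of a Gal4-LXR reporter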
T1 sequence (P55055 whole entry): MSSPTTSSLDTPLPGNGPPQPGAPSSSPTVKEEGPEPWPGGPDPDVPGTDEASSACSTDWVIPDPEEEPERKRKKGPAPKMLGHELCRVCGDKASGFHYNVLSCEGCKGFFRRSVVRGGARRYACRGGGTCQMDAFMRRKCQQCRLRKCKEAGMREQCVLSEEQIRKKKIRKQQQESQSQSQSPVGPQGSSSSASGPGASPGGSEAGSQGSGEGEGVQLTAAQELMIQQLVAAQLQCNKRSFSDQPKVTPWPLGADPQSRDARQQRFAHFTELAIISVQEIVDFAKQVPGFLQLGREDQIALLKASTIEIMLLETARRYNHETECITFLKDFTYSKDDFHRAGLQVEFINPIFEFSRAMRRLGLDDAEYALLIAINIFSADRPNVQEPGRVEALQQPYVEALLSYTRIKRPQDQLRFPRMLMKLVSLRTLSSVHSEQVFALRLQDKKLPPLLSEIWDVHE

[2] = Counterscreen for antagonists of the orexin 1 receptor (OX1R; HCRTR1): Fluorescence-based cell-based high throughput dose response assay to identify antagonists of the parental CHO cell line. [Related pubchem assays (depositor defined):AID434989, AID435008, AID463079, AID485270, AID492963, AID492964, AID492965, AID493232, AID504699, AID504701]; format: functional
[3] = blockers of bursicon-stimulated LGR2 cAMP reporter – cell-based, HEK293, CRE-luciferase reporter, cherry pick, set 2, dose response (AID 743343); format: functional;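 further: transfected cells were stimulated with diluted bursicon conditioned medium after compound addition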
BJ [4] = experiment: cells; format: functional, cell-based; details: Homo sapiens
[5] = molecular target: T2, Orexin/Hypocretin receptor type 1 (Homo sapiens, UniProt O43613); experiment: Homogeneous Time Resolved Fluorescence (HTRF)-based cell-based high throughput dose response assay for antagonists of the orexin 1 receptor (OX1R; HCRTR1). [Related pubchem assays (depositor defined):AID434989, AID435008, AID463079, AID485270, AID492963, AID492964, AID492965, AID493232, AID504717, AID504718]; format: functional
BJ [6] = experiment: BJ-TERT-LT-ST fibroblast viability loss – cell-based, RAS-independent, luminescence, dose response (AID 1935); format: functional; details: Homo sapiens;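 further: BJ fibroblasts immortalized with TERT plus LT and ST oncogenes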
Orexin receptor type 2 [7] = molecular target: T3, Orexin receptor type 2 (Homo sapiens, UniProt O43614); experiment: Counterscreen assay for antagonists of the orexin 1 receptor (OX1R; HCRTR1): Fluorescence-based cell-based dose response assay for antagonists of the orexin 2 receptor (OX2R; HCRTR2), run by assay provider.; format: functional
[8] = DRD fibroblast viability loss – cell-based, non-viral oncogenic, luminescence, dose response (AID 1934); format: functional; details: Homo sapiens
[9] = toxicity toward HepG2 liver cells – cell-based, plate reader, cherry-pick, antagonist series, cytotoxicity control, dose response (AID 743416); format: functional
BJ [10] = experiment: growth inhibition of engineered Ras-driven BJ cells – cell-based, alamar blue fluorescence, cherrypicked samples, dose response (AID 2631); format: functional; details: Homo sapiens;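 further: confirmatory dose-response assay in RAS-dependent BJ fibroblasts engineered with TERT, LT and ST, with cytotoxicity read by fluorescence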
[11] = blockade of melanocortin 4 receptor signaling – cell-based, plate reader, cherry pick, counter-screen for LGR2 antagonist project, dose response (AID 743444); format: functional;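 further: transfected HEK 293 cells stimulated with alpha-MSH peptide; potency of inhibitors of the alpha-MSH evoked signal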
BJ [12] = experiment: BJ-TERT fibroblast viability loss – cell-based, RAS-independent, luminescence, dose response (AID 1933); format: functional; details: Homo sapiens
CHO-K1 = experiment: Counterscreen for antagonists of the orexin 1 receptor (OX1R; HCRTR1): Homogeneous time resolved fluorescence (HTRF)-based cell-based dose response assay to identify antagonists of the parental CHO-K1 cell line. [Related pubchem assays (depositor defined):AID434989, AID435008, AID463079, AID485270, AID492963, AID492964, AID492965, AID493232, AID504699, AID504701]; format: functional; details: Cricetulus griseus;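 further: potency for inhibition of ATP-stimulated IP1 production as antagonists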
Protein skinhead-1 = molecular target: T4, Protein skinhead-1 (Caenorhabditis elegans, UniProt P34707); format: functional
T4 sequence (P34707 whole entry): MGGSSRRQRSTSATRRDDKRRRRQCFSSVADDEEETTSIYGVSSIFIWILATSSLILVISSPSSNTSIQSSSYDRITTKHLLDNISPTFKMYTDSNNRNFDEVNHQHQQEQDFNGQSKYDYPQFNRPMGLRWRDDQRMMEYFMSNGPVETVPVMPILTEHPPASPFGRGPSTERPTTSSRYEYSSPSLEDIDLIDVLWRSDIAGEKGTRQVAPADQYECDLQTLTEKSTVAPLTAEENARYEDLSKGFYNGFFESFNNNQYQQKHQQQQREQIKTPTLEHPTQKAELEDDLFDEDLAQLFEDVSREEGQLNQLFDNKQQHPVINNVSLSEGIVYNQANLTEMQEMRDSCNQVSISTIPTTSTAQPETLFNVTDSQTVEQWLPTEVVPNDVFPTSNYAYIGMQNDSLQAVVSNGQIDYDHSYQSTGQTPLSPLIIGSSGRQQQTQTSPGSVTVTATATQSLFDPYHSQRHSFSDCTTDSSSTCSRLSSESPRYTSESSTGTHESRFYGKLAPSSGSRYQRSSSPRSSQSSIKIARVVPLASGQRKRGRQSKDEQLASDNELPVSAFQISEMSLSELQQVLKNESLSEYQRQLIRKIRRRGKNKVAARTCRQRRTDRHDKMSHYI

[13] = viability loss in HEK293 cells – cell-based, plate reader, cherry-picked samples, cytotoxicity control, dose response (AID 743446); format: functional
[14] = A549 cell cytotoxicity, dose response, cytotoxicity control, plate reader, cherry-pick, antagonist series (AID 743412); format: functional, cell-based
[15] = A Cell Based Secondary Assay To Explore Cytotoxicity of Compounds that Sensitize Mycobacterium Tuberculosis to Beta-Lactam Antibiotics.; format: functional
Orexin receptor type 2 [16] = molecular target: T3, Orexin receptor type 2; experiment: Counterscreen assay for antagonists of the orexin 1 receptor (OX1R; HCRTR1): Homogeneous Time Resolved Fluorescence (HTRF)-based cell-based dose response assay for antagonists of the orexin 2 receptor (OX2R; HCRTR2), run by assay provider.; format: functional
[17] = molecular target: T2, Orexin/Hypocretin receptor type 1; experiment: Fluorescence-based cell-based high throughput dose response assay for antagonists of the orexin 1 receptor (OX1R; HCRTR1). [Related pubchem assays (depositor defined):AID434989, AID435008, AID463079, AID485270, AID492963, AID492964, AID492965, AID493232, AID504717, AID504718]; format: functional
[18] = Luminescence Cell-Based Dose Confirmation HTS to Identify Inhibitors of Platelet Dense Granule Release. [Related pubchem assays: 1663 (Primary HTS), 1678 (Summary of Project)]; format: functional
[19] = molecular target: Luciferin 4-monooxygenase (Photinus pyralis, UniProt P08659); experiment: inhibition of purified Photinus pyralis luciferase – biochemical, luminescence, dose response (AID 1891)
[20] = molecular target: 72 kDa type IV collagenase (Homo sapiens, UniProt P08253); experiment: Dose Response validation of uHTS RPN11 inhibitor hits using a MMP-2 Fluorescence assay.; format: functional
Cytochrome P450 2D6 = Cytochrome P450 2D6 (Homo sapiens, UniProt P10635);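 further: CYP2D6 member of a cytochrome P450 panel assay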
Aminopeptidase N = molecular target: T5, Aminopeptidase N (Plasmodium falciparum FcB1/Columbia, UniProt O96935); experiment: malaria alanyl aminopeptidase activity blockers – biochemical, fluorogenic H-Leu-NHMec substrate, 1536-well (AID 1445); design: species or system Plasmodium falciparum 3D7, 3D7
T5 sequence (O96935 whole entry): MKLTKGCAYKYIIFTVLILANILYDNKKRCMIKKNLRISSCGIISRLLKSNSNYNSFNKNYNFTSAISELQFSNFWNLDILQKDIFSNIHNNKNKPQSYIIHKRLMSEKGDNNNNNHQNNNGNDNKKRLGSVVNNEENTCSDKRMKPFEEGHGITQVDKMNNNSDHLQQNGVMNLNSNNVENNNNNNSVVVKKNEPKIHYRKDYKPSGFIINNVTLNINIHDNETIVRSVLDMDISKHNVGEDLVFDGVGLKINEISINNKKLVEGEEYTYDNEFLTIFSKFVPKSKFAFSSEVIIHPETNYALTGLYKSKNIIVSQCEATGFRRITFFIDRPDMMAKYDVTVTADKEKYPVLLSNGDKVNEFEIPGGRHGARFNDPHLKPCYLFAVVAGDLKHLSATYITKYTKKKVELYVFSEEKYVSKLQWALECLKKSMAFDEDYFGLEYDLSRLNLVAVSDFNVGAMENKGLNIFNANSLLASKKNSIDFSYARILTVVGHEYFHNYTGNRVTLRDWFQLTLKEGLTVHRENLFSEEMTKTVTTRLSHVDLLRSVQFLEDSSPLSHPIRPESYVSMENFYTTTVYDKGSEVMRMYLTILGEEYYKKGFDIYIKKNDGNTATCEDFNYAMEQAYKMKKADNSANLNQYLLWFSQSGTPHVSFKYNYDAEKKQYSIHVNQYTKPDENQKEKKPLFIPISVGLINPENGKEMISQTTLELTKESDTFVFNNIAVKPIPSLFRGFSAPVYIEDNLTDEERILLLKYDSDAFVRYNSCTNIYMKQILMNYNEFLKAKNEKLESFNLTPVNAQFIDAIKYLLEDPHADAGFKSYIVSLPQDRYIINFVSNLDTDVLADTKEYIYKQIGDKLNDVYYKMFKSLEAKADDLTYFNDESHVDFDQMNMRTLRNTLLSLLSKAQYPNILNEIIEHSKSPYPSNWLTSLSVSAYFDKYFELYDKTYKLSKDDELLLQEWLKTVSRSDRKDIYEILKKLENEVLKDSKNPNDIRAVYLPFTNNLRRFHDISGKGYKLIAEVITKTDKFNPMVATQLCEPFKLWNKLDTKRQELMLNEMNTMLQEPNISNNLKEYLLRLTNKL

Prothrombin = Prothrombin (Bos taurus, UniProt P00735); experiment: thrombin protease inhibitors – biochemical, fluorescence polarization, uHTS hits, dose response (AID 602369); format: functional
[21] = molecular target: 26S proteasome non-ATPase regulatory subunit 14 (Homo sapiens, UniProt O00487); experiment: inhibition of proteasome subunit RPN11 – biochemical, fluorescence polarization, uHTS hits, confirmation (AID 602368); format: functional
Fatty acid synthase [22] = molecular target: T6, Fatty acid synthase (Homo sapiens, UniProt P49327); experiment: inhibition of human FAS-TE enzyme activity – biochemical, endpoint fluorescence intensity, uHTS hits, dose response (AID 624327); format: functional;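 further: fluorescence from hydrolysis of an O-methyl fluorescein acyl ester substrate by the enzyme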
[23] = molecular target: Multidrug resistance protein CDR1 (Candida albicans, UniProt P43071); experiment: inhibition of Nile Red efflux via Candida CDR1 – S. cerevisiae AD1-8u, singleplex, Cherry Pick1 hits, dose response (AID 588606); format: functional
Fatty acid synthase [24] = molecular target: T6, Fatty acid synthase; experiment: inhibition of human FAS-TE enzyme activity – biochemical, kinetic fluorescence intensity, dose response (AID 624326); format: functional;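 further: rate of fluorescence rise from hydrolysis of a fluorogenic O-methyl fluorescein ester substrate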
[25] = molecular target: Melanin-concentrating hormone receptor 1 (Homo sapiens, UniProt Q99705); experiment: Late-stage fluorescence-based counterscreen for antagonists of the G-protein coupled receptor 7 (GPR7): cell-based dose response assay to identify antagonists of the melanin-concentrating hormone receptor 1 (MCHR1) Set 6.; format: functional
[26] = molecular target: T7, Neuropeptides B/W receptor type 1 (Homo sapiens, UniProt P48145); experiment: human NPBW1 receptor blockade, IC50 – cell-based, fluorescence, dose response, set 6, late-stage follow-up (AID 588583); format: functional
T7 sequence (P48145 whole entry): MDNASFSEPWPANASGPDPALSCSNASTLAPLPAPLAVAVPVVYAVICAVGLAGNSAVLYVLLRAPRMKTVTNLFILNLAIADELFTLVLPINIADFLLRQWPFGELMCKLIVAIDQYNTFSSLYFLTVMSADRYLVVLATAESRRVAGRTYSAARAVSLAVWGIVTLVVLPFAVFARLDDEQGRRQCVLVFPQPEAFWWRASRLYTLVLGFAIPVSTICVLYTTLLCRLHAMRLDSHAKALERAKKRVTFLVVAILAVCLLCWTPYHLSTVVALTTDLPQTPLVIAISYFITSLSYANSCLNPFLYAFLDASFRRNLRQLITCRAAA

T6 sequence (P49327 whole entry): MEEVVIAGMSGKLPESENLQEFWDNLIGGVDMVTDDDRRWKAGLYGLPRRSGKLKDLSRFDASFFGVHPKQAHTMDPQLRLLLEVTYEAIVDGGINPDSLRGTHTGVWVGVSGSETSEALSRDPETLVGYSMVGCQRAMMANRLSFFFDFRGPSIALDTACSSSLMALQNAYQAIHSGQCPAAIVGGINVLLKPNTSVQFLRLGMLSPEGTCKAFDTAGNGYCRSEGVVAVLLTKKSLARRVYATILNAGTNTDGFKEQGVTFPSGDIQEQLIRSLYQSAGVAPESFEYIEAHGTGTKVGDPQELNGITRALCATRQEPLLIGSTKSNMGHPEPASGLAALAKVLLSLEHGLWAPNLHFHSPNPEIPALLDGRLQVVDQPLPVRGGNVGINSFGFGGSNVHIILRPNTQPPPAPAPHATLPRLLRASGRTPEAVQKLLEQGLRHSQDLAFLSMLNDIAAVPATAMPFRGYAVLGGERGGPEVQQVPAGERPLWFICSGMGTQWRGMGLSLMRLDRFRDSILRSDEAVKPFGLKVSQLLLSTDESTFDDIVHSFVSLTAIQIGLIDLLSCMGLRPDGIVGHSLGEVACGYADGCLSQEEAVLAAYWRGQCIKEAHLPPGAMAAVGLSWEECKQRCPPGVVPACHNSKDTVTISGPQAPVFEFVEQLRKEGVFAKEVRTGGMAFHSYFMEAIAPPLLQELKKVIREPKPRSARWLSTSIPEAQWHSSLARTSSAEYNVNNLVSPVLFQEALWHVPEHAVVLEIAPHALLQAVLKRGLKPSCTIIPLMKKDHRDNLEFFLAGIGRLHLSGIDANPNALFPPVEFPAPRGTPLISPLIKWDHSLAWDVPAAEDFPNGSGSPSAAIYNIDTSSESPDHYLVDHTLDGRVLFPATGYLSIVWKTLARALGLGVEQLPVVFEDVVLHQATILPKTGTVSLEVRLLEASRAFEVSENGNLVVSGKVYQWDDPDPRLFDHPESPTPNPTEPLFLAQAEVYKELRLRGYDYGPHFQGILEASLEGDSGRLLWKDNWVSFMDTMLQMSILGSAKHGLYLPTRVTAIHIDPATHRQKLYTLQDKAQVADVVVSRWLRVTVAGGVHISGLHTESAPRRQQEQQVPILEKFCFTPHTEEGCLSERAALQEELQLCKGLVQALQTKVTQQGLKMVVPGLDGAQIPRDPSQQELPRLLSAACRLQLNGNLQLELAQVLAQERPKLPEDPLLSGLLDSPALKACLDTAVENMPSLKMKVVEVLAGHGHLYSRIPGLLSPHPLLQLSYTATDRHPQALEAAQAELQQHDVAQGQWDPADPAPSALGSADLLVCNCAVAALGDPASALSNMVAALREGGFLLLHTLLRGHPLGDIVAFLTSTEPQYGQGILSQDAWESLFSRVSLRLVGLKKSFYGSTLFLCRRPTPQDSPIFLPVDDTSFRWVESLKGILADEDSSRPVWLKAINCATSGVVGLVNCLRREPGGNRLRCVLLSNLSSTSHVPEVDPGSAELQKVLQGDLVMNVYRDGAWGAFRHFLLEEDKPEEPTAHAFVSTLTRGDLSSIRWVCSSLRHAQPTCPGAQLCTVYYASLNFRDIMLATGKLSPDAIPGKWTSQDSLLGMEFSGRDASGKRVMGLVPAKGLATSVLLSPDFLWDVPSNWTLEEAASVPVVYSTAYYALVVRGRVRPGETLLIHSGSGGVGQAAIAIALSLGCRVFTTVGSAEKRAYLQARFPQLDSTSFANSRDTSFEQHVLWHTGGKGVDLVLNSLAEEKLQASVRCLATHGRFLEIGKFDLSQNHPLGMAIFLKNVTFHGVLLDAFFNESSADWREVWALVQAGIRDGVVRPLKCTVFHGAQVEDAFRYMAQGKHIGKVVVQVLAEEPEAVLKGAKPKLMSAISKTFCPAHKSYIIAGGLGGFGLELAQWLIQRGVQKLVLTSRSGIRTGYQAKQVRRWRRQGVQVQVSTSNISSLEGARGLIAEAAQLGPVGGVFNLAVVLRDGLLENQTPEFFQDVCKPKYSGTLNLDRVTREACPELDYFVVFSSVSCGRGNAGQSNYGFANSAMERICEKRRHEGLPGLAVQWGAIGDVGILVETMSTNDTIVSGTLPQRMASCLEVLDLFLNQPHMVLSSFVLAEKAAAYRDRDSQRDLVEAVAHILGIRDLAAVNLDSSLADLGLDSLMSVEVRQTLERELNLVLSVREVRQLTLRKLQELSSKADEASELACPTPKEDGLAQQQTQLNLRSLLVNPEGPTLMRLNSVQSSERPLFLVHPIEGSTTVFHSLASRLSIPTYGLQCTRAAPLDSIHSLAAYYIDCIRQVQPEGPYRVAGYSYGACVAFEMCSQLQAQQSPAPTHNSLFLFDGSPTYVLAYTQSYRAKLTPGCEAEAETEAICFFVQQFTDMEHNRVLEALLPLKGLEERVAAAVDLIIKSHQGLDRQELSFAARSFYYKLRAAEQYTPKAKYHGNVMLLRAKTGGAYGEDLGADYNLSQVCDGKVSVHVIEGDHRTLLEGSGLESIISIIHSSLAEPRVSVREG
T3 sequence (O43614 whole entry): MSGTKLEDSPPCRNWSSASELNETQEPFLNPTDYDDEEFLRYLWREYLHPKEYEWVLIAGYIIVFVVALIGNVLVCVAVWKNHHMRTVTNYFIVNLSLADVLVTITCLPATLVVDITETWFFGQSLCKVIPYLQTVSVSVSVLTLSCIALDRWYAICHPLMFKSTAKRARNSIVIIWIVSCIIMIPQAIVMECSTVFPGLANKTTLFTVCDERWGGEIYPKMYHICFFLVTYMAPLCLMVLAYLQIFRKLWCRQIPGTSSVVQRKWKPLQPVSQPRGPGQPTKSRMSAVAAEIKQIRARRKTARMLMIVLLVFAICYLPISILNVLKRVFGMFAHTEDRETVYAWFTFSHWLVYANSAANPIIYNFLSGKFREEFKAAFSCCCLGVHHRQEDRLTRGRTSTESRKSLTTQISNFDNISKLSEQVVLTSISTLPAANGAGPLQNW
T2 sequence (O43613 whole entry): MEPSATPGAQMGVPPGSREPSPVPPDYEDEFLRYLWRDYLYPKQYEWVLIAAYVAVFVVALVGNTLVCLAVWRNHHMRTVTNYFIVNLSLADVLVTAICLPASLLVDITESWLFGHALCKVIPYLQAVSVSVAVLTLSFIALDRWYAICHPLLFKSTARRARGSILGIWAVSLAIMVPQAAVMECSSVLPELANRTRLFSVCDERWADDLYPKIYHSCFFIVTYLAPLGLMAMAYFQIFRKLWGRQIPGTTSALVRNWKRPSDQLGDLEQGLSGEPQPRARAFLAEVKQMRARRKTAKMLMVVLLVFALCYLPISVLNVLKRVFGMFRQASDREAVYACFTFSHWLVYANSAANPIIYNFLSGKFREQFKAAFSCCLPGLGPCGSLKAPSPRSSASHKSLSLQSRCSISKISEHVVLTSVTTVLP
Luciferin 4-monooxygenase, sequence (P08659 whole entry): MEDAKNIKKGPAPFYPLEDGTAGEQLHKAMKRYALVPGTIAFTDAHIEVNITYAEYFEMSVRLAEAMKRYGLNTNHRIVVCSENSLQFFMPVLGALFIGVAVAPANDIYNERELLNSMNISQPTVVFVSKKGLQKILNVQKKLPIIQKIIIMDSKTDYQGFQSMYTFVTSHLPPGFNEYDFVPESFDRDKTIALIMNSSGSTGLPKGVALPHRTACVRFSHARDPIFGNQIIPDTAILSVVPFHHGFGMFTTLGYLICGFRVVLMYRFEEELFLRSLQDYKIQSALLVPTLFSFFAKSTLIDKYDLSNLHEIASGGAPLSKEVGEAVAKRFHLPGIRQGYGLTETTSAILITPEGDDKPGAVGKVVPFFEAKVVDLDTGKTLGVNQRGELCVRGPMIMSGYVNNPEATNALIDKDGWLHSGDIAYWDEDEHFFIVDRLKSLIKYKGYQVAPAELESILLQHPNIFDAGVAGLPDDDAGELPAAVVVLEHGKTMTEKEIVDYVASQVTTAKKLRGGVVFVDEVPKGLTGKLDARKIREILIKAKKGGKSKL
26S proteasome non-ATPase regulatory subunit 14, sequence (O00487 whole entry): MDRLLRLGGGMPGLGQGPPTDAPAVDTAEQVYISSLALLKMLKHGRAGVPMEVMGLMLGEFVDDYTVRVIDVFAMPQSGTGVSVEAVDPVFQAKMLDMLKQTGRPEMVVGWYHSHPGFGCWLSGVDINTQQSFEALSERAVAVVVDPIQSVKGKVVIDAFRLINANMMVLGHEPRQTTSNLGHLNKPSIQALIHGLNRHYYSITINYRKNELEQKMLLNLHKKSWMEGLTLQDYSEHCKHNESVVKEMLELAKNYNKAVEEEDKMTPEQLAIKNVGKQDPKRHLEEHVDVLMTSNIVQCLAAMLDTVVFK
72 kDa type IV collagenase, sequence (P08253 whole entry): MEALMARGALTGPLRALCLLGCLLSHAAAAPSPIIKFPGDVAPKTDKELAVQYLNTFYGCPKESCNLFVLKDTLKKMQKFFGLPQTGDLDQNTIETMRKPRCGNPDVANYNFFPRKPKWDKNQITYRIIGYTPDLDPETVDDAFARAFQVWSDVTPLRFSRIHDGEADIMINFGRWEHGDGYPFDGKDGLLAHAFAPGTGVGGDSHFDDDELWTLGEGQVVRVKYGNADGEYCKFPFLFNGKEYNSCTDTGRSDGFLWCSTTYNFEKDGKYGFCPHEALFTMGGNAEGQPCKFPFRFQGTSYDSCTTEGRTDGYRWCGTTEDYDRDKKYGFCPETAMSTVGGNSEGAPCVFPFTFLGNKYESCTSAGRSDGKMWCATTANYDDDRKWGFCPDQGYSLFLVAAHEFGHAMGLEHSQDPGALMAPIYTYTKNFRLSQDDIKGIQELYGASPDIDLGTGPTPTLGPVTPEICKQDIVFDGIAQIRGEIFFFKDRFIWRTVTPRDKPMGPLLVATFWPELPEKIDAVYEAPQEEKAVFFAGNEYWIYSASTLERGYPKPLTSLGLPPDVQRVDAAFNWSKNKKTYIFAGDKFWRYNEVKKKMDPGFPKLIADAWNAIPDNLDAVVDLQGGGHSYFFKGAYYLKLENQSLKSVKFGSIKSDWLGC

c1ccc2nc(-c3nc4ccccc4o3)ccc2c1
EC50 [1]: > 67.5 µM (inactive) | IC50 [2]: > 49.8 µM (inactive) | AC50 [3]: 3.53 µM (active) | EC50 (BJ [4]): 8.74 µM (active) | IC50 [5]: 0.954 µM (active) | EC50 (BJ [6]): > 150 µM (inconclusive) | IC50 (Orexin receptor type 2 [7]): 41.7 µM (inactive) | EC50 [8]: 7.36 µM (active) | AC50 [9]: > 52 µM (inactive) | EC50 (BJ [10]): > 133 µM (inactive) | AC50 [11]: 2.72 µM (active) | EC50 (BJ [12]): 10.5 µM (active) | IC50 (CHO-K1): > 66.2 µM (inactive) | IC50 (Protein skinhead-1): 9.69 µM (active) | AC50 [13]: 11.1 µM (active) | AC50 [14]: 22.5 µM (active) | CC50 [15]: > 40 µM (active) | IC50 (Orexin receptor type 2 [16]): 0.006 µM (active) | EC50 (cells): > 67.5 µM (inactive) | IC50 [17]: 5.46 µM (active) | EC50 [18]: 4.38 µM (active) | EC50 [19]: 1.36 µM (active)

N#Cc1c(O)nc(SCC(=O)c2cccs2)nc1-c1cccs1
IC50 [20]: > 100 µM (inactive) | AC50 (Cytochrome P450 2D6): inconclusive | IC50 (Aminopeptidase N): 24.1 µM (active) | IC50 (Prothrombin): 47.8 µM (active) | IC50 [21]: 37.2 µM (active)

COc1ccc(NC(=O)Nc2cccc3c2O[C@H](CN(C)C(=O)NC2CCCCC2)[C@@H](C)CN([C@H](C)CO)C3=O)cc1
IC50 (Fatty acid synthase [22]): 3.56 µM (active) | EC50 [23]: 8.86 µM (active) | IC50 (Fatty acid synthase [24]): 3.35 µM (active)

N#CC(c1ccccc1)c1c(Cl)cnn(C2c3ccccc3-c3ccccc32)c1=O (configuration not stated)
IC50 [25]: 2.22 µM (active) | IC50 [26]: 2.22 µM (active)
